{"source": "ChEMBL document CHEMBL5512665", "about": "“A CARM1 Inhibitor Potently Suppresses Breast Cancer Both In Vitro and In Vivo” (J Med Chem, 2024)", "key": {"MCF7 [1]": {"system": "MCF7", "experiment": "Antiproliferative activity against human MCF7 cells with siRNA mediated CARM1 knockdown assessed as reduction in cell growth at 5 uM incubated for 7 days by celltiter 96 aqueous one solution cell proliferation assay", "type": "functional, cell-based", "details": "time 7.0 day"}, "T47D": {"system": "T47D", "experiment": "Induction of cell cycle arrest in human T47D cells at 2.5 to 10 uM incubated overnight by propidium iodide staining based flow cytometry", "type": "functional", "details": "dose 2.5-10 µM"}, "MCF7 [2]": {"system": "MCF7", "experiment": "Antitumor activity against human MCF7 cells xenografted in BALB/C mouse assessed as reduction of tumor weight at 25 mg/kg,ip administrated every other day for 29 days", "type": "functional, organism-based", "details": "time 29.0 day"}, "MCF7 [3]": {"system": "MCF7", "experiment": "Antitumor activity against human MCF7 cells xenografted in BALB/C mouse assessed as reduction of tumor size at 50 mg/kg,ip administrated every other day for 29 days", "type": "functional, organism-based", "details": "time 29.0 day"}, "[4]": {"experiment": "Toxicity in BALB/C mouse xenografted with human MCF7 cells assessed as change in body weight at 25 mg/kg,ip administrated every other day for 29 days", "type": "organism-based", "details": "in vivo, 696 h, time 29 day"}, "[5]": {"experiment": "Toxicity in BALB/C mouse xenografted with human MCF7 cells assessed as change in body weight at 50 mg/kg,ip administrated every other day for 29 days", "type": "organism-based", "details": "in vivo, 696 h, time 29 day"}, "[6]": {"experiment": "Toxicity in BALB/C mouse xenografted with human MCF7 cells assessed as change in heart morphology at 25 mg/kg,ip administrated every other day for 29 days", "type": "organism-based", "details": "in vivo, 696 h, time 29 day"}, "[7]": {"experiment": "Toxicity in BALB/C mouse xenografted with human MCF7 cells assessed as change in kidney morphology at 25 mg/kg,ip administrated every other day for 29 days", "type": "organism-based", "details": "in vivo, 696 h, time 29 day"}, "MCF7 [8]": {"system": "MCF7", "experiment": "Antitumor activity against human MCF7 cells xenografted in BALB/C mouse assessed as downregulation of PGR gene expression at 25 mg/kg,ip administrated every other day for 29 days by RT-qPCR analysis", "type": "functional, organism-based", "details": "time 29.0 day"}, "MCF7 [9]": {"system": "MCF7", "experiment": "Antitumor activity against human MCF7 cells xenografted in BALB/C mouse assessed as downregulation of PGR gene expression at 50 mg/kg,ip administrated every other day for 29 days by RT-qPCR analysis", "type": "functional, organism-based", "details": "time 29.0 day"}, "MCF7 [10]": {"system": "MCF7", "experiment": "Antitumor activity against human MCF7 cells xenografted in BALB/C mouse assessed as upregulation of ISG15 gene expression at 25 mg/kg,ip administrated every other day for 29 days by RT-qPCR analysis", "type": "functional, organism-based", "details": "time 29.0 day"}, "MCF7 [11]": {"system": "MCF7", "experiment": "Antitumor activity against human MCF7 cells xenografted in BALB/C mouse assessed as upregulation of CCL5 gene expression at 25 mg/kg,ip administrated every other day for 29 days by RT-qPCR analysis", "type": "functional, organism-based", "details": "time 29.0 day"}, "MDA-MB-231 [12]": {"system": "MDA-MB-231", "experiment": "Antiproliferative activity against human MDA-MB-231 cells assessed as reduction in cell growth incubated for 7 days by celltiter 96 aqueous one solution cell proliferation assay", "details": "MDA-MB-231, 168 h"}, "HCC1806": {"system": "HCC1806", "experiment": "Antiproliferative activity against human HCC1806 cells assessed as reduction in cell growth incubated for 7 days by celltiter 96 aqueous one solution cell proliferation assay", "details": "HCC1806, 168 h"}, "MDA-MB-231 [13]": {"system": "MDA-MB-231", "experiment": "Antitumor activity against human MDA-MB-231 cells xenografted in BALB/C mouse assessed as reduction of tumor size at 25 mg/kg,ip administrated daily for 11 days", "type": "functional, organism-based", "details": "time 11.0 day"}, "MDA-MB-231 [14]": {"system": "MDA-MB-231", "experiment": "Antitumor activity against human MDA-MB-231 cells xenografted in BALB/C mouse assessed as reduction of tumor weight at 25 mg/kg,ip administrated daily for 11 days", "type": "functional, organism-based", "details": "time 11.0 day"}, "[15]": {"experiment": "Toxicity in BALB/C mouse xenografted with human MDA-MB-231 cells assessed as change in body weight at 50 mg/kg,ip administrated daily for 11 days", "type": "organism-based", "details": "in vivo, 264 h, time 11 day"}, "4T1 [16]": {"system": "4T1", "experiment": "Antitumor activity against mouse 4T1 cells implanted in BALB/C mouse assessed as inhibition of tumor size at 25 mg/kg,ip administrated daily for 14 days", "type": "functional, organism-based", "details": "time 14.0 day"}, "4T1 [17]": {"system": "4T1", "experiment": "Antitumor activity against mouse 4T1 cells implanted in BALB/C mouse assessed as inhibition of tumor size at 50 mg/kg,ip administrated daily for 14 days", "type": "functional, organism-based", "details": "time 14.0 day"}, "[18]": {"experiment": "Toxicity in BALB/C mouse implanted with mouse 4T1 cells assessed as change in lung morphology at 25 mg/kg,ip administrated daily for 14 days", "type": "organism-based", "details": "in vivo, 336 h, time 14 day"}, "4T1 [19]": {"system": "4T1", "experiment": "Antitumor activity against mouse 4T1 cells implanted in BALB/C mouse assessed as downregulation of N-Myc gene expression at 50 mg/kg,ip administrated daily for 14 days by RT-qPCR analysis", "type": "functional, organism-based", "details": "time 14.0 day"}, "4T1 [20]": {"system": "4T1", "experiment": "Antitumor activity against mouse 4T1 cells implanted in BALB/C mouse assessed as downregulation of GREB1 gene expression at 50 mg/kg,ip administrated daily for 14 days by RT-qPCR analysis", "type": "functional, organism-based", "details": "time 14.0 day"}, "4T1 [21]": {"system": "4T1", "experiment": "Antitumor activity against mouse 4T1 cells implanted in BALB/C mouse assessed as downregulation of PGR gene expression at 25 mg/kg,ip administrated daily for 14 days by RT-qPCR analysis", "type": "functional, organism-based", "details": "time 14.0 day"}, "4T1 [22]": {"system": "4T1", "experiment": "Antitumor activity against mouse 4T1 cells implanted in BALB/C mouse assessed as upregulation of DDX58 gene expression at 50 mg/kg,ip administrated daily for 14 days by RT-qPCR analysis", "type": "functional, organism-based", "details": "time 14.0 day"}, "MCF7 [23]": {"system": "MCF7", "experiment": "Synergistic antitumor activity against human MCF7 cells xenografted in BALB/C mouse assessed as reduction in tumor weight at 25 mg/kg,ip administrated every other day for 15 days in presence of 5 mg/kg tamoxifen oral administration", "type": "functional, organism-based", "details": "time 15.0 day"}, "MCF7 [24]": {"system": "MCF7", "experiment": "Synergistic antitumor activity against human MCF7 cells xenografted in BALB/C mouse assessed as downregulation of N-Myc gene expression at 25 mg/kg,ip administrated every other day for 15 days in presence of 5 mg/kg tamoxifen oral administration by RT-qPCR analysis", "type": "functional, organism-based", "details": "time 15.0 day"}, "MCF7 [25]": {"system": "MCF7", "experiment": "Synergistic antitumor activity against human MCF7 cells xenografted in BALB/C mouse assessed as downregulation of FOXC1 gene expression at 25 mg/kg,ip administrated every other day for 15 days in presence of 5 mg/kg tamoxifen oral administration by RT-qPCR analysis", "type": "functional, organism-based", "details": "time 15.0 day"}, "MCF7 [26]": {"system": "MCF7", "experiment": "Potentiation of etoposide induced antiproliferative activity against human MCF7 cells assessed as upregulation of IFNalpha gene expression at 2.5 uM in presence of etoposide by RT-qPCR analysis", "type": "functional, cell-based"}, "MCF7 [27]": {"system": "MCF7", "experiment": "Potentiation of etoposide induced antiproliferative activity against human MCF7 cells assessed as upregulation of CCL5 gene expression at 2.5 uM in presence of etoposide by RT-qPCR analysis", "type": "functional, cell-based"}, "4T1 [28]": {"system": "4T1", "experiment": "Potentiation of etoposide induced antitumor activity against mouse 4T1 cells implanted in BALB/C mouse assessed as upregulation of CCL5 gene expression at 25 mg/kg,ip administrated daily for 12 days in presence of 8 mg/kg etoposide administration by RT-qPCR analysis", "type": "functional, organism-based", "details": "time 12.0 day"}, "4T1 [29]": {"system": "4T1", "experiment": "Potentiation of etoposide induced antitumor activity against mouse 4T1 cells implanted in BALB/C mouse assessed as upregulation of DDX58 gene expression at 25 mg/kg,ip administrated daily for 12 days in presence of 8 mg/kg etoposide administration by RT-qPCR analysis", "type": "functional, organism-based", "details": "time 12.0 day"}, "4T1 [30]": {"system": "4T1", "experiment": "Potentiation of etoposide induced antitumor activity against mouse 4T1 cells implanted in BALB/C mouse assessed as upregulation of CD8A expression at 25 mg/kg,ip administrated daily for 12 days in presence of 8 mg/kg etoposide administration by immunohistochemical staining based analysis", "type": "functional, organism-based", "details": "time 12.0 day"}}, "note": "The source made the active and inactive calls. The rule behind the calls is not given here."}
{"smiles": "Cc1ccc(-c2nc(N3CCN(CCN(C)C)CC3)ncc2-c2ccoc2)cc1.Cl.Cl", "values": [{"measurement": "Activity", "setting": "MCF7 [1]", "result": "inactive"}, {"measurement": "Activity", "setting": "T47D", "result": "Active"}, {"measurement": "Activity", "setting": "MCF7 [2]", "result": "Active"}, {"measurement": "Activity", "setting": "MCF7 [3]", "result": "Active"}, {"measurement": "Activity", "setting": "[4]", "result": "Non-Toxic"}, {"measurement": "Activity", "setting": "[5]", "result": "Non-Toxic"}, {"measurement": "Activity", "setting": "[6]", "result": "Non-Toxic"}, {"measurement": "Activity", "setting": "[7]", "result": "Non-Toxic"}, {"measurement": "Activity", "setting": "MCF7 [8]", "result": "Active"}, {"measurement": "Activity", "setting": "MCF7 [9]", "result": "Active"}, {"measurement": "Activity", "setting": "MCF7 [10]", "result": "Active"}, {"measurement": "Activity", "setting": "MCF7 [11]", "result": "Active"}, {"measurement": "EC50", "setting": "MDA-MB-231 [12]", "result": 3.75, "unit": "µM"}, {"measurement": "EC50", "setting": "HCC1806", "result": 2.83, "unit": "µM"}, {"measurement": "Activity", "setting": "MDA-MB-231 [13]", "result": "Active"}, {"measurement": "Activity", "setting": "MDA-MB-231 [14]", "result": "Active"}, {"measurement": "Activity", "setting": "[15]", "result": "Non-Toxic"}, {"measurement": "Activity", "setting": "4T1 [16]", "result": "Active"}, {"measurement": "Activity", "setting": "4T1 [17]", "result": "Active"}, {"measurement": "Activity", "setting": "[18]", "result": "Non-Toxic"}, {"measurement": "Activity", "setting": "4T1 [19]", "result": "Active"}, {"measurement": "Activity", "setting": "4T1 [20]", "result": "Active"}, {"measurement": "Activity", "setting": "4T1 [21]", "result": "Active"}, {"measurement": "Activity", "setting": "4T1 [22]", "result": "Active"}, {"measurement": "Activity", "setting": "MCF7 [23]", "result": "Active"}, {"measurement": "Activity", "setting": "MCF7 [24]", "result": "Active"}, {"measurement": "Activity", "setting": "MCF7 [25]", "result": "Active"}, {"measurement": "Activity", "setting": "MCF7 [26]", "result": "Active"}, {"measurement": "Activity", "setting": "MCF7 [27]", "result": "Active"}, {"measurement": "Activity", "setting": "4T1 [28]", "result": "Active"}, {"measurement": "Activity", "setting": "4T1 [29]", "result": "Active"}, {"measurement": "Activity", "setting": "4T1 [30]", "result": "Active"}]}
